We go through 43 compounds from US10858335B2 (Rigel Pharmaceuticals, Inc., priority 2014, dated 2020).

In this assay the test system is GDF8 signaling (p-SMAD-3 (Ser423/425)). In words: AlphaScreen SureFire SMAD3 (p-Ser423/425) assay, GDF8-stimulated cells (GDF pSMAD). In kind it is cell-based. The conditions noted are these: Mus musculus, MPC-11, MPC11; GDF8-stimulated; p-SMAD3 AlphaScreen; read-out: GDF pSMAD (MPC11) (inhibition of GDF8 signaling).

Take `Cc1cc(-c2ncc(NCc3ccncc3)cc2-c2ccc3ncsc3c2)ccc1F` [compound 509, 5-(Benzo[d]thiazol-6-yl)-6-(4-fluoro-3-methylphenyl)-N-(pyridin-4-ylmethyl)pyridin-3-amine]: the IC50 was 265 nM.
The result for `Cc1cccc(-c2cccnc2-c2ccc3[nH]ncc3c2)n1` [compound 517, 5-(6-Methyl-[2,3′-bipyridin]-2′-yl)-1H-indazole] reads 1170 nM; that for `Cc1cccc(-c2cccnc2-c2ccc3nc[nH]c3c2)n1` [compound 521, 6-(6-Methyl-[2,3′-bipyridin]-2′-yl)-1H-benzo[d]imidazole], 8060 nM.
The result for `Cc1cc(-c2ncccc2-c2ccc3ncc(C)n3c2)ccc1F` [compound 527, 6-(2-(4-Fluoro-3-methylphenyl)pyridin-3-yl)-3-methylimidazo[1,2-a]pyridine] reads 137 nM.
In the case of `Cc1cccc(-c2ncccc2-c2ccc3ncc(C)n3c2)c1` [compound 528, 3-Methyl-6-(2-(m-Tolyl)pyridin-3-yl)imidazo[1,2-a]pyridine] it was 175 nM; in that of `Cc1cnc2ccc(-c3cccnc3-c3cccc(C4CC4)c3)cn12` [compound 529, 6-(2-(3-Cyclopropylphenyl)pyridin-3-yl)-3-methylimidazo[1,2-a]pyridine], 323 nM; in that of `Cc1cnc2ccc(-c3cccnc3-c3cccc(C(F)(F)F)c3)cn12` [compound 530, 3-Methyl-6-(2-(3-(trifluoromethyl)phenyl)pyridin-3-yl)imidazo[1,2-a]pyridine], 625 nM.
`Cc1cn2cc(-c3cccnc3-c3ccc(F)c(C)c3)ccc2n1` [compound 531, 6-(2-(4-Fluoro-3-methylphenyl)pyridin-3-yl)-2-methylimidazo[1,2-a]pyridine]: the IC50 is 11200 nM.
The result for `Cc1cccc(-c2ncccc2-c2ccc3nc(C)cn3c2)c1` [compound 532, 2-Methyl-6-(2-(m-tolyl)pyridin-3-yl)imidazo[1,2-a]pyridine] reads 17700 nM; that for `Cc1cn2cc(-c3cccnc3-c3cccc(C4CC4)c3)ccc2n1` [compound 533, 6-(2-(3-Cyclopropylphenyl)pyridin-3-yl)-2-methylimidazo[1,2-a]pyridine], 6120 nM; that for `Cc1cn2cc(-c3cccnc3-c3cccc(C(F)(F)F)c3)ccc2n1` [compound 534], 18000 nM.
With `Cc1cc(-c2ncccc2-c2ccc3ncccc3n2)ccc1F` [compound 535, 2-(2-(4-Fluoro-3-methylphenyl)pyridin-3-yl)-1,5-naphthyridine], the IC50 was determined as 504 nM.
The result for `Cc1cccc(-c2ncccc2-c2ccc3ncccc3n2)c1` [compound 536, 2-(2-(m-Tolyl)pyridin-3-yl)-1,5-naphthyridine] reads 404 nM.
Take `c1cc(-c2ncccc2-c2ccc3ncccc3n2)cc(C2CC2)c1` [compound 537, 2-(2-(3-Cyclopropylphenyl)pyridin-3-yl)-1,5-naphthyridine]: the IC50 was found to be 111 nM.
In the case of `FC(F)(F)c1cccc(-c2ncccc2-c2ccc3ncccc3n2)c1` [compound 538, 2-(2-(3-(Trifluoromethyl)phenyl)pyridin-3-yl)-1,5-naphthyridine] it was 474 nM.
As to `Cc1cc(-c2ncccc2-c2ccc3nccnc3c2)ccc1F` [compound 539, 6-(2-(4-Fluoro-3-methylphenyl)pyridin-3-yl)quinoxaline], the IC50 worked out at 699 nM.
In the case of `Cc1cccc(-c2ncccc2-c2ccc3nccnc3c2)c1` [compound 540, 6-(2-(m-Tolyl)pyridin-3-yl)quinoxaline] it was 426 nM.
In the case of `c1cc(-c2ncccc2-c2ccc3nccnc3c2)cc(C2CC2)c1` [compound 541, 6-(2-(3-Cyclopropylphenyl)pyridin-3-yl)quinoxaline] it was 250 nM; in that of `FC(F)(F)c1cccc(-c2ncccc2-c2ccc3nccnc3c2)c1` [compound 542, 6-(2-(3-(Trifluoromethyl)phenyl)pyridin-3-yl)quinoxaline], 1720 nM; in that of `Cc1cccc(-c2ncccc2-c2ccc3nccc(N4CCOCC4)c3c2)c1` [compound 548, 4-(6-(2-(m-Tolyl)pyridin-3-yl)quinolin-4-yl)morpholine], 16400 nM.
Turning to `c1cc(-c2ncccc2-c2ccc3nccc(N4CCOCC4)c3c2)cc(C2CC2)c1` [compound 549, 4-(6-(2-(3-Cyclopropylphenyl)pyridin-3-yl)quinolin-4-yl)morpholine], the IC50 amounted to 5010 nM.
The result for `Cc1cc(-c2ncccc2-c2ccc3ncc(N(C)C)n3c2)ccc1F` [compound 551, 6-(2-(4-Fluoro-3-methylphenyl)pyridin-3-yl)-N,N-dimethylimidazo[1,2-a]pyridin-3-amine] reads 4880 nM; that for `Cc1cccc(-c2ncccc2-c2ccc3ncc(N(C)C)n3c2)c1` [compound 552, N,N-Dimethyl-6-(2-(m-tolyl)pyridin-3-yl)imidazo[1,2-a]pyridin-3-amine], 4060 nM; that for `CN(C)c1cnc2ccc(-c3cccnc3-c3cccc(C4CC4)c3)cn12` [compound 553, 6-(2-(3-Cyclopropylphenyl)pyridin-3-yl)-N,N-dimethylimidazo[1,2-a]pyridin-3-amine], 3240 nM.
`CN(C)c1cnc2ccc(-c3cccnc3-c3cccc(C(F)(F)F)c3)cn12` [compound 554, N,N-Dimethyl-6-(2-(3-(trifluoromethyl)phenyl)pyridin-3-yl)imidazo[1,2-a]pyridin-3-amine]: the IC50 amounted to 4680 nM.
As for `Cc1cc(-c2ncccc2-c2ccc3ncc(C(F)(F)F)n3c2)ccc1F` [compound 555, 6-(2-(4-Fluoro-3-methylphenyl)pyridin-3-yl)-3-(trifluoromethyl)imidazo[1,2-a]pyridine], the IC50 turned out to be 156 nM.
In the case of `FC(F)(F)c1cnc2ccc(-c3cccnc3-c3cccc(C4CC4)c3)cn12` [compound 556, 6-(2-(3-Cyclopropylphenyl)pyridin-3-yl)-3-(trifluoromethyl)imidazo[1,2-a]pyridine] it was 363 nM.
The result for `Cc1cc(-c2ncccc2-c2ccc3ncc(C#N)n3c2)ccc1F` [compound 557, 6-(2-(4-Fluoro-3-methylphenyl)pyridin-3-yl)imidazo[1,2-a]pyridine-3-carbonitrile] reads 439 nM; that for `Cc1cccc(-c2ncccc2-c2ccc3ncc(C#N)n3c2)c1` [compound 558, 6-(2-(m-Tolyl)pyridin-3-yl)imidazo[1,2-a]pyridine-3-carbonitrile], 188 nM; that for `N#Cc1cnc2ccc(-c3cccnc3-c3cccc(C4CC4)c3)cn12` [compound 559, 6-(2-(3-Cyclopropylphenyl)pyridin-3-yl)imidazo[1,2-a]pyridine-3-carbonitrile], 162 nM.
Consider `N#Cc1cnc2ccc(-c3cccnc3-c3cccc(C(F)(F)F)c3)cn12` [compound 560, 6-(2-(3-(Trifluoromethyl)phenyl)pyridin-3-yl)imidazo[1,2-a]pyridine-3-carbonitrile], for which the IC50 stood at 2480 nM.
The result for `Cc1cc(-c2ncccc2-c2ccc3ncc(N4CCCC4)n3c2)ccc1F` [compound 561, 6-(2-(4-Fluoro-3-methylphenyl)pyridin-3-yl)-3-(pyrrolidin-1-yl)imidazo[1,2-a]pyridine] reads 11000 nM; that for `Cc1cccc(-c2ncccc2-c2ccc3ncc(N4CCCC4)n3c2)c1` [compound 562, 3-(Pyrrolidin-1-yl)-6-(2-(m-tolyl)pyridin-3-yl)imidazo[1,2-a]pyridine], 9780 nM.
The result for `c1cc(-c2ncccc2-c2ccc3ncc(N4CCCC4)n3c2)cc(C2CC2)c1` [compound 563, 6-(2-(3-Cyclopropylphenyl)pyridin-3-yl)-3-(pyrrolidin-1-yl)imidazo[1,2-a]pyridine] reads 5200 nM; that for `FC(F)(F)c1cccc(-c2ncccc2-c2ccc3ncc(N4CCCC4)n3c2)c1` [compound 564, 3-(Pyrrolidin-1-yl)-6-(2-(3-(trifluoromethyl)phenyl)pyridin-3-yl)imidazo[1,2-a]pyridine], 18400 nM; that for `Cc1cc(-c2ncccc2-c2ccc3ncc(CO)n3c2)ccc1F` [compound 565, (6-(2-(4-Fluoro-3-methylphenyl)pyridin-3-yl)imidazo[1,2-a]pyridin-3-yl)methanol], 406 nM.
In the case of `Cc1cccc(-c2ncccc2-c2ccc3ncc(CO)n3c2)c1` [compound 566, (6-(2-(m-Tolyl)pyridin-3-yl)imidazo[1,2-a]pyridin-3-yl)methanol], the IC50 turned out to be 342 nM.
The result for `OCc1cnc2ccc(-c3cccnc3-c3cccc(C4CC4)c3)cn12` [compound 567, (6-(2-(3-Cyclopropylphenyl)pyridin-3-yl)imidazo[1,2-a]pyridin-3-yl)methanol] reads 225 nM.
For `OCc1cnc2ccc(-c3cccnc3-c3cccc(C(F)(F)F)c3)cn12` [compound 568, (6-(2-(3-(Trifluoromethyl)phenyl)pyridin-3-yl)imidazo[1,2-a]pyridin-3-yl)methanol], the IC50 is 674 nM.
Take `Cc1cc(-c2ncccc2-c2ccc3ncc(CN4CCOCC4)n3c2)ccc1F` [compound 569, 4-((6-(2-(4-Fluoro-3-methylphenyl)pyridin-3-yl)imidazo[1,2-a]pyridin-3-yl)methyl)morpholine]: the IC50 came to 5410 nM.
The result for `Cc1cccc(-c2ncccc2-c2ccc3ncc(CN4CCOCC4)n3c2)c1` [compound 570, 4-((6-(2-(m-Tolyl)pyridin-3-yl)imidazo[1,2-a]pyridin-3-yl)methyl)morpholine] reads 5900 nM; that for `c1cc(-c2ncccc2-c2ccc3ncc(CN4CCOCC4)n3c2)cc(C2CC2)c1` [compound 571, 4-((6-(2-(3-Cyclopropylphenyl)pyridin-3-yl)imidazo[1,2-a]pyridin-3-yl)methyl)morpholine], 7310 nM.
The result for `COc1cc(NC(=O)c2cnc3ccc(-c4cccnc4-c4ccc(F)c(C)c4)cn23)cc(OC)c1OC` [compound 573, 6-(2-(4-Fluoro-3-methylphenyl)pyridin-3-yl)-N-(3,4,5-trimethoxyphenyl)imidazo[1,2-a]pyridine-3-carboxamide] reads 1210 nM.
